# Measurements as given in the supplement of paper PMC10307832.
# Legend:
# Assay in all cases: relative viability (nuclei count vs DMSO), 5 days (fraction); higher = more cells survive
# [1] = compound: COc1cc2nc(N3CCCN(C)CC3)nc(NC3CCN(Cc4ccccc4)CC3)c2cc1OC + Cc1nc(NC(=O)N2CCC[C@H]2C(N)=O)sc1-c1ccnc(C(C)(C)C(F)(F)F)c1 [Alpelisib] (partner 2 µM)
# Procedure, shortened: (§1)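 One day after seeding in 1536-well plates, lung cancer cell lines were dosed by pin tool. Dosing was either single-drug or a fixed anchor-drug dose plus five library-drug doses (not always all listed) in √10 steps. After 5 days, nuclei were stained in one fix-and-stain step and counted on 4× images, and relative viability is the nuclei count of treated wells over that of vehicle wells, given as the median of duplicate plates.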
# [2] = compound: COc1cc2nc(N3CCCN(C)CC3)nc(NC3CCN(Cc4ccccc4)CC3)c2cc1OC + Cc1nc(Nc2ncc(C(=O)Nc3c(C)cccc3Cl)s2)cc(N2CCN(CCO)CC2)n1 [Dasatinib] (partner 0.075 µM)
# Procedure, shortened: as §1
# [3] = compound: Cc1cc([C@@H](C)Nc2ccccc2C(=O)O)c2nc(N3CCOCC3)cc(=O)n2c1 [AZD6482] + COc1cc2c(Oc3ccc(NC(=O)C4(C(=O)Nc5ccc(F)cc5)CC4)cc3F)ccnc2cc1OCCCN1CCOCC1 [Foretinib] (partner 0.25 µM)
# Procedure, shortened: as §1
# [4] = compound: Cc1cc([C@@H](C)Nc2ccccc2C(=O)O)c2nc(N3CCOCC3)cc(=O)n2c1 [AZD6482] + C[C@@H](Oc1cc(-c2cnn(C3CCNCC3)c2)cnc1N)c1c(Cl)ccc(F)c1Cl [Crizotinib] (partner 1 µM)
# Procedure, shortened: as §1
Cell Line,relative viability ([1]; first compound 0.2 µM),relative viability ([1]; first compound 0.6325 µM),relative viability ([1]; first compound 2 µM),relative viability ([1]; first compound 6.325 µM),relative viability ([2]; first compound 0.2 µM),relative viability ([2]; first compound 0.6325 µM),relative viability ([2]; first compound 2 µM),relative viability ([2]; first compound 6.325 µM),relative viability ([3]; first compound 0.08 µM),relative viability ([3]; first compound 0.253 µM),relative viability ([3]; first compound 0.8 µM),relative viability ([3]; first compound 2.53 µM),relative viability ([3]; first compound 8 µM),relative viability ([4]; first compound 0.08 µM),relative viability ([4]; first compound 0.253 µM),relative viability ([4]; first compound 0.8 µM),relative viability ([4]; first compound 2.53 µM),relative viability ([4]; first compound 8 µM)
201T,1.01,0.998,1.05,1.01,0.573,0.495,0.549,0.557,1.07,1.01,1.11,0.734,1.08,0.998,0.991,1.09,0.944,1.04
A549,0.694,0.8,0.761,0.722,,,,,0.898,0.842,0.979,0.596,0.743,0.73,0.722,0.754,0.405,0.431
A-427,1.12,0.98,0.997,1.08,0.64,0.707,0.749,0.651,0.959,0.937,1.13,,1.05,0.747,0.858,0.788,0.732,0.962
ABC-1,0.955,0.988,1.18,0.92,0.531,0.525,0.568,0.581,0.868,1.21,1.03,0.86,0.719,0.853,0.969,1.03,0.899,0.801
BEN,1.07,1,1.13,1.06,0.384,0.389,0.36,0.351,0.675,0.62,0.701,0.558,0.739,0.876,0.769,0.913,0.655,0.827
CAL-12T,1.21,1.23,1.16,1.15,0.37,0.325,0.54,0.294,1.11,1.22,1.2,0.792,1,0.572,0.662,0.853,0.455,0.794
COR-L23,0.799,0.724,0.944,0.712,0.57,0.476,0.559,0.519,0.888,1.04,1.03,0.81,0.799,0.467,0.733,0.749,0.489,0.478
COR-L 105,1.11,0.86,1.08,0.732,0.338,0.472,0.328,0.25,1.08,0.711,1.03,0.744,0.932,0.8,0.742,0.742,0.581,0.828
Calu-6,0.884,0.926,1,0.976,,,,,0.789,0.815,0.9,0.644,0.765,0.701,0.741,0.796,0.639,0.782
ChaGo-K-1,,,,,0.514,0.617,0.592,0.584,0.973,0.863,0.833,0.894,0.968,1.11,,0.744,1.23,1.12
EBC-1,0.82,0.798,0.787,0.697,,,,,0.102,0.104,0.124,0.0931,0.115,0.19,0.154,0.212,0.216,0.2
EKVX,0.918,0.833,0.92,0.784,0.571,0.52,0.474,0.526,0.746,0.654,0.921,0.542,0.614,0.855,0.939,0.788,0.537,0.584
EMC-BAC-2,0.765,0.69,0.784,0.77,0.345,0.305,0.327,0.371,0.861,0.94,0.969,0.718,0.698,0.66,0.717,0.858,0.617,0.653
EPLC-272H,0.952,0.904,1.05,0.912,0.384,0.411,0.453,0.37,0.621,0.426,0.506,0.378,0.256,0.796,,0.835,0.649,0.584
H3255,0.632,0.852,0.86,0.523,0.401,0.5,0.448,0.342,1.03,0.662,0.898,0.498,0.627,0.869,0.819,0.841,0.534,0.714
HARA,0.798,0.823,0.858,0.87,0.275,0.271,0.255,0.266,0.811,0.809,0.889,0.663,0.61,0.857,1.04,0.839,,0.899
HCC-15,0.886,0.842,0.875,0.687,0.632,0.706,0.654,0.44,0.989,0.882,1.01,0.853,0.988,0.755,0.729,0.763,0.699,0.869
HCC-44,0.832,0.748,0.841,0.746,,,,,,,,,,0.671,0.884,0.965,0.901,0.523
HCC-78,0.354,0.364,0.297,0.251,0.486,0.557,0.362,0.421,0.471,0.493,0.517,0.351,0.349,0.295,0.322,0.245,0.227,0.235
